Measured values published in patent US9091804B2, “Polymer film, and optically-compensatory film, polarizer and liquid-crystal display device comprising the same” (FUJIFILM Corporation, priority 2004, dated 2015).

Experiments:
[1] = solubility in 1.5 mol/liter aqueous NaOH at 55° C. (visual); details: 1.5 mol/liter NaOH at 55° C., visual observation
[2] = physchem; details: DMSO/water=7/3 solvent system

| Solubility [1] [%] | pKa [2] | SMILES |
| --- | --- | --- |
| <1 | > 14 | CCN(CC)S(=O)(=O)c1ccc(C)cc1 [A-42] |
| <1 | > 14 | OC(c1ccccc1)(c1ccccc1)c1ccccc1 [D-7] |
| <1 | > 14 | CN(C(=O)c1ccccc1)c1ccccc1 [FA-1] |
| <1 | > 14 | CCN(C(=O)C1CCCCC1)C1CCCCC1 [FB-2] |
| <1 | > 14 | O=C(C1CCCCC1)N(C1CCCCC1)C1CCCCC1 [FB-6] |
